Laboratory results published in US8329413B2, “Glycoproteomic probes for fluorescent imaging of fucosylated glycans in vivo” (Academia Sinica, priority 2007, dated 2012).
Where a name gives a salt, the structure may show the parent alone.

Legend:
[1] = cited from earlier work
[2] = system: human alpha1-acid glycoprotein (AGP); experiment: Fluorescent labeling of AGP fucosylated by FucT V, SDS/PAGE visualized by UV light; format: biochemical; conditions: AGP fucosylated with FucT V and GDP-fucose analog 8, 9 or 10, then labeled with 1a or 1b
Text: Briefly, fucose analogs 4 and 5 are converted to the corresponding 1-bromides, which then are substituted directly by a phosphate group. […] Therefore, TiBr4 is used instead, as described by Srivastava. The fucose-1-phosphates are converted to the corresponding GDP-fucose analogs by using 1H-tetrazole as a catalyst. The tolerability of GDP-fucose analogs 8 and 9 for human alpha-1,3-fucosyltranseferases (FucTs) II-VII is confirmed by using a standard microtiter plate assay. They are then used to elaborate the glycoconjugate substrate, human alpha1-acid glycoprotein (AGP), an acute-phase protein. As fucosylation of AGP is associated with inflammatory diseases, the degree of fucosylation of AGP could be a potential diagnostic or prognostic marker. AGP was fucosylated by using FucT V in the presence of GDP-fucose analogs 8 or 9. After gel filtration, the fucosylated AGP is labeled by using the corresponding naphthalimide 1a or 1b for 4 h at room temperature. Labeled protein is analyzed by SDS/PAGE and visualized by UV light (365 nm). […] Treated protein was separated by SDS/PAGE and visualized by UV light (Top) and Coomassie blue staining (CBB) (Middle). (Bottom) Modified GDP-fucose.
Human alpha1-acid glycoprotein (0.33 mg/mL), pretreated with alpha-fucosidase, was incubated with human alpha-1,3-fucosyltransferase V (100 mU/mL) in MOPS buffer (50 mM, pH 7.2) containing 150 mM NaCl, 10 mM MnCl2, 4 mM ATP, 0.2 mM GDP-fucose analog (8-10). After incubation at 37° C. for 8 h, additional GDP-fucose derivative (final 0.4 mM) was added and the reaction mixture was incubated at 37° C. for 12 h. […]
The fucosylated glycoconjugate was dissolved in HEPES buffer (50 mM, pH 7.6), and added to a solution containing CuSO4 (0.2 mM), 1.0 mM sodium ascorbate, the tris(triazolyl)amine ligand (20) (0.2 mM, stock in DMSO), and the appropriate naphthalimide ligation probe 1a or 1b (0.1 mM, stock in DMSO, final concentration of DMSO; 10%)). After 1 h at room temperature, the mixture was passed through NAP-5 column in water and lyophilized, and analyzed by SDS-PAGE.

Jurkat cells = experiment: Fluorescent labeling at the cell surface by flow cytometry; format: cell-based
Text: In another aspect, the disclosure provides a method of labeling of azide-tagged glycoconjugates expressed on the cell surface by using the alkyne click-activated fluorogenic probe 1a. First, the effect of various Cu(I) sources on the copper-catalyzed cell-surface labeling reaction was investigated. Cu(I) is typically generated including in situ by the reduction of Cu(II) by conventional reducing agents or the direct addition of Cu(I) as a salt. To label azido tagged glycoconjugates (in this case, cellular glycans that had incorporated azidofucose), we investigated both methods by using in situ Cu(II) reduction with ascorbic acid and Tris(carboxyethyl)phosphine (TCEP) and direct addition of Cu(I), via CuBr, in CuAAC reactions. Jurkat cells were cultured in the presence of globally acetylated 6-azido-L-fucose 12 (acetylation increases cellular uptake of the sugar) so that they will incorporate the analog via the salvage pathway. After incubating for 3 days, the cells were labeled with 1a in the presence of the above listed Cu(I) sources, and the fluorescent intensities were measured by flow cytometry. […]
Jurkat cells were cultured in RPMI medium 1640 (Invitrogen, Carlsbad, Calif.), supplemented with 10% FCS and peracetylated fucose 11 or azidofucose 12 (200 μM) at a density of 2×10^5 cells per ml for 3 days, in the presence or absence of tunicamycin (5 μg/ml). […] The fluorescence intensity was detected and acquired by BD LSR II (BD Biosciences, San Jose, Calif.) and FACSDiva software (BD Biosciences). […] For detection of the fluorescent adduct with probe 1a, a 351-nm UV laser was used for excitation, and emission was detected by a 440/40 band-pass filter.
Jurkat cells were cultured in RPMI 1640 (Invitrogen, Carlsbad, Calif.) supplemented with 10% FCS and peracetylated fucose 11 or azidofucose 12 ([…]) at the density of 2×10^5 cells/mL for 3 days, in the presence or absence of tunicamycin ([…]). […] The fluorescence intensity was detected and acquired by BD LSR II (BD Biosciences, San Jose, Calif.) and FACSDiva software (BD Biosciences). […]

Hep 3B = experiment: Fluorescence microscopy imaging of intracellular fucosylated glycoconjugates; format: cell-based, human
Experimental: The human hepatoma cell line, Hep 3B, was incubated with acetylated azidofucose 12. After 3 days, the cells were fixed, washed with PBS, and then stained with 1a for visualization. […] The labeling reaction was performed in the presence of Cu(I) after the treatment with control fucose (A) or azidofucose 12 (B), or in the absence of Cu(I) after the treatment with control fucose (C) or azidofucose 12 (D). (Scale bar: 20 μm.)
In another aspect of the disclosure, double-staining experiments were performed to find out whether the punctate pattern observed from azidofucose marks specific cellular compartments. […] Azidofucose treated cells were fixed and labeled with probe 1a and then further treated with WGA lectin conjugated with Alexa Fluor 594, and the cells were imaged with confocal fluorescence microscope, using the appropriate filter sets. […] (Scale bar: 20 μm.)
The human hepatocellular carcinoma cell line, Hep3B (American Type Culture Collection, Manassas, Va.), was cultured in Opti-MEM (Invitrogen) supplemented with 0.1% FCS and treated with natural fucose or peracetylated azidofucose 12 (200 μM) for 3 days. The cells then were transferred to a coverslip glass slide and cultured overnight in the same medium. […] After labeling, cells were washed with PBS, and fluorescence images were obtained by using Axiovert 200M (Carl Zeiss, Inc., Thornwood, N.Y.). […]

[3] = Rapid screening of L-amino acids as cycloaddition ligand catalysts using fluorogenic probe 1a; conditions: L-amino acid 1.0 mM, CuSO4 1.0 mM, 1a + 2a
Experimental: A fluorescence quenching technique was used to identify catalysts for the copper-catalyzed cycloaddition. […] In such a screen, the reaction between 1a and 2a is performed in microtiter plates in the presence of individual amino acids. […] (Upper) The microtiter plate was visualized under long wavelength UV lamp (365 nm). (Lower) The fluorescent intensities of each well are measured by a fluorescence plate reader.
The effect of the ligand effect on the reaction rate was visualized by holding the 96-well microtiter plate under a long wavelength UV lamp (365 nm) and analyzed with a standard fluorescence multiplate reader.
The overall volume in each vial was 250 microliters containing a solution of 1,8-naphthalimide 1a (0.5 mM), azidofucose 2a (1.0 mM), CuSO4 (1.0 mM), L-amino acid (1.0 mM) and sodium ascorbate (5.0 mM) in DMSO/water (56% DMSO). The reactions were allowed to stand at room temperature for 24 hours. The reaction mixture was diluted 60 times with 50 mM HEPES buffer (pH 7.2) and then transferred to 96-well microtiter plate, and fluorescence intensity (excitation, 365 nm; emission, […]) was determined with a Fusion plate reader (Perkin Elmer/Packard).

[4] = Stoichiometric study of L-histidine in the cycloaddition of 1a and 2a; conditions: relative to copper ion; L-histidine 0-3.0 mM, CuSO4 1.0 mM
Experimental: The overall volume in each vial was 250 microliters containing a solution of 1,8-naphthalimide 1a (0.5 mM), azidofucose 2a (1.0 mM), CUSO4 (1.0 mM), L-histidine (0-3.0 mM) and sodium ascorbate (5.0 mM) in DMSO/water (56% DMSO). The reactions were allowed to stand at room temperature for 24 hours. The catalytic activity was determined by the same method described above (FIG. 10).
In this condition, 60% of 1a was converted to the product 10 after 1 h at room temperature and the reaction was completed in less than 6 h. To confirm the effects of L-His on the reaction, we measured the time-course of the reaction by fluorescence spectrometer. Conditions: 1,8-naphthalimide 1a (0.1 mM), azidofucose 2a (1.0 mM), CuSO4 (2.0 mM), L-histidine (0 or 4.0 mM) and sodium ascorbate (100 mM) in 50 mM HEPES buffer (containing 6% DMSO). After mixing all reagents, the fluorescence intensity was measured in 5 min intervals at 37° C. by a fluorescence spectrophotometer (FIG. 11). […] Fluorescence intensities were monitored at λ ex 357 nm and λem 462 nm.

Compound: Nc1ccc2c3c(cccc13)C(=O)NC2=O [4-amino-1,8-naphthalimide]
- emission λmax ([1]; long wavelength emission, basis of probe design): 540-550 nm

Compound: C#Cc1ccc2c3c(cccc13)C(=O)N(CC)C2=O [Compound 1a, 4-Ethynyl-N-ethyl-1,8-naphthalimide]
- fluorescent band of labeled AGP on SDS/PAGE under UV light (365 nm) [2]: clear fluorescent bands

Compound: C[C@@H]1O[C@H](OP(=O)(O)OP(=O)(O)OC[C@H]2O[C@@H](n3cnc4c(=O)[nH]c(N)nc43)[C@H](O)[C@@H]2O)[C@@H](O)[C@H](O)[C@@H]1O [Compound 10, GDP-fucose]
- fluorescent band of labeled AGP on SDS/PAGE under UV light (365 nm) [2]: No band was present

Compound: CC(=O)OC1O[C@@H](CN=[N+]=[N-])[C@@H](OC(C)=O)[C@@H](OC(C)=O)[C@@H]1OC(C)=O (stereo partly shown) [Compound 12]
- cell fluorescence after CuAAC labeling with 1a vs natural fucose (Jurkat cells; Jurkat cells, 3 days, all three copper sources, flow cytometry): distinct increase in fluorescence
- fluorescent signal after labeling with biotinylated alkyne 13 and avidin-fluorescein vs fucose (Jurkat cells; Jurkat cells, flow cytometry): distinct increase in fluorescent signal
- labeling pattern after staining with 1a vs control fucose (Hep 3B; Hep 3B, 3 days, fixed cells, Cu(I)): distinct punctate-labeling pattern
- co-localization with Alexa Fluor 594-conjugated WGA lectin (Golgi marker) (Hep 3B; fixed cells labeled with probe 1a, confocal microscopy): overlapped perfectly

Compound: N[C@@H](Cc1c[nH]cn1)C(=O)O [Histidine, histidine]
- enhancement of reaction rate compared to ligand-free conditions ([3]; 24 h room temperature): about 6 times
- amount of ligand giving maximum effect on the catalysis [4]: 2.0 mol equivalent

Compound: C=C[C@H]1C[N@@]2CC[C@H]1C[C@H]2[C@H](O)c1ccnc2ccc(OC)cc12 [Quinine sulfate]
- quantum yield of fluorescent standard ([1]; standard value): 0.54

Compound: N[C@@H](CS)C(=O)O [cysteine]
- effect on cycloaddition reaction [3]: obstructive to the reaction

Compound: N[C@@H](CCC(=O)O)C(=O)O [glutamic acid]
- effect on cycloaddition reaction [3]: obstructive to the reaction

Compound: NCCCC[C@H](N)C(=O)O [lysine]
- effect on cycloaddition reaction [3]: obstructive to the reaction

Compound: N[C@@H](Cc1c[nH]c2ccccc12)C(=O)O [tryptophan]
- enhancement of cycloaddition rates ([3]; 24 h room temperature): approximately 2 fold

Compound: N[C@@H](Cc1ccc(O)cc1)C(=O)O [tyrosine]
- enhancement of cycloaddition rates ([3]; 24 h room temperature): approximately 2 fold

Compound: tunicamycin
- effect on cell surface fluorescence (Jurkat cells; Jurkat cells co-treated with azidofucose, labeled with 1a): suppressed cell surface fluorescence
